Results reported in publication PMC11695203, “A new peptide inhibitor of C1QBP exhibits potent anti‐tumour activity against triple negative breast cancer by impairing mitochondrial function and suppressing homologous recombination repair” (Clinical and Translational Medicine, 2025).

What was measured:
[1] = system: MDA-MB-231 xenograft; experiment: MDA-MB-231 tumour model in nude mice; format: in vivo, BALB/c nude mice; conditions: PJ34-HCL combination study, harvested tumours
Procedure: (§1) Four‐week‐old BALB/c nude mice (Charles River Laboratories, Beijing, China) were subcutaneously inoculated in the breast fat pad with 1 × 10^7 MDA‐MB‐231 cells. The treatment group received 10 mg/kg PDBAG1, while the control group was administered an equal volume of PBS. For preliminary experiment of immunocompetent mice, 4‐week‐old BALB/c mice (Charles River Laboratories) were subcutaneously inoculated in the mammary fat pad with 1 × 10^6 4T1 cells. The treatment group received 10 mg/kg PDBAG1, while the control group was administered an equal volume of PBS. For evaluating the PJ34‐HCL combination, 28 randomly assigned BALB/c nude mice were divided into respective treatment groups as follows: Group 1 served as a negative control and received PBS; Group 2 received intraperitoneal injections of 10 mg/kg PDBAG1 every 3 days; Group 3 received 1 mg/kg PJ34‐HCL every 3 days; Group 4 was treated with a combination of 10 mg/kg PDBAG1 and 1 mg/kg PJ34‐HCL every 3 days. Both PDBAG1 and PJ34‐HCL were dissolved in specific concentrations of normal saline and administered intraperitoneally. All mice were sacrificed 4 weeks after inoculation, and their subcutaneous xenografts were resected and weighed. Subsequently, formalin‐fixed subcutaneous tumours were processed into paraffin‐embedded sections for routine IHC analysis. […]

[2] = system: MDA-MB-231 cells; experiment: CCK-8 assay, MDA-MB-231; format: cell-based, human; conditions: CCK-8, MDA-MB-231 and MDA-MB-468, co-treated 72 h / 24 h
Procedure: The cells were cultured at the corresponding cell densities in 96‐well plates. Following treatment with specific concentrations of reagents for designated durations, the CCK8 reagent was added to each well at a final ratio of 10% (v/v). After incubation for 2 h, the absorbance at 450 nm was measured using a microplate reader (H4, Synergy). For the Edu assay, logarithmic growth phase cells were inoculated into 96‐well plates at a density of 3 × 10^4 cells/mL. Subsequently, they were treated with specific concentrations of reagents for designated durations and then replaced with EdU medium containing a final concentration of 10 µmol/L. The cells were incubated for an additional period of 2 h. Following PBS washing and fixation with 4% paraformaldehyde for 30 min, Apollo staining reaction solution was added according to instructions and allowed to react for another 30 min. This was followed by addition of DAPI staining reaction solution for a duration of 10 min before washing again with PBS. Three randomly selected fields of vision from each group in each well were calculated and photographed under a fluorescence microscope. […] Three random fields of view were selected to quantify the number of cells that traversed through the microporous membrane.

[3] = system: HEK-293T and MCF-10A cell lines; conditions: 30 μM, 24 hours
[4] = In vivo toxicity: body weight and HE staining of spleen, liver, kidney; conditions: PDBAG1 10 mg/kg, PJ34-HCL 1 mg/kg i.p. every 3 days
Procedure: as §1

[5] = system: MDA-MB-231 and MDA-MB-468 cells; conditions: FITC-labelled PDBAG1 50 µM, 6 h, fluorescence microscopy
Procedure: The cells were seeded in a 24‐well plate, and FITC‐labelled PDBAG1 was added to the cell culture medium at a final concentration of 50 µM. After three washes with PBS, performed 6 h post peptide addition, the samples were fixed with 4% paraformaldehyde for 15 min and stained with DAPI (5 µg/mL) for 5 min. Following PBS washing, fluorescence microscopy was employed for observation.

[6] = system: C1QBP; conditions: cited from earlier work
Description: C1QBP, targeted by PDBAG1, predominantly localises in the mitochondrial matrix and plays a crucial role in mitochondrial protein translation and function.[3] It represents a promising therapeutic target for various human cancers, including breast cancer. We observed significant overexpression of C1QBP in the TNBC subtype, which correlated with worse DFS. Based on our findings, we believe PDBAG1 primarily affects tumour cells, with minimal toxicity to normal cells. Although PDBAG1's precursor peptide is derived from normal adipose tissue, its impact on adipose metabolism is likely less pronounc ...

[7] = target: T1, human C1QBP 74–282 (human, UniProt Q07021 74-282); experiment: ITC; PDBAG1 (500 µM) in the syringe into C1QBP 74–282 (17.0 µM) in the cell, 25°C, MicroCal VP ITC, no Zn2+, one set-of-sites model; buffer by the methods 20 mM HEPES pH 7.5, 600 mM NaCl, 1 mM EDTA, 1 mM EGTA, 5% glycerol, by the legend 20 mM potassium phosphate, 100 mM NaCl, pH 7.4; conditions: both partners purified
T1 construct: also called p32; source: vector a gift from Dr Adrian R. Krainer
T1 sequence (looked up): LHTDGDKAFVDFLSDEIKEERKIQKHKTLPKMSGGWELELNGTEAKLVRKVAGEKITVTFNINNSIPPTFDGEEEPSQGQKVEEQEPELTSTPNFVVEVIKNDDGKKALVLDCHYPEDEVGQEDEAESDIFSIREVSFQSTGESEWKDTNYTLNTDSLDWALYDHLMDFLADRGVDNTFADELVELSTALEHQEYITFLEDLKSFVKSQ

Question: Which results are given for CN(C)CC(=O)Nc1ccc2[nH]c(=O)c3ccccc3c2c1.Cl [PJ34‐HCL]?
Answer: C1QBP protein in tumour tissue (IHC, western blot) [1]: no substantial changes; Cell viability with PARP inhibitor, alone or combined with PDBAG1 [2]: exhibited significant effects

Question: Which results are given for “Ac-GRKKRRQRRRPPQQASKKVCIVGSGNWGSAIA-NH2 [PDBAG1]”?
Answer: Morphological alterations in non-tumour cells [3]: no obvious in morphological alterations; Body weight during or after drug administration [4]: no significant differences; HE staining of spleen, liver and kidney [4]: no notable deviations from normal structure and morphology; Cell penetration [5]: potent cell‐penetrating properties

Question: Which “Binding to C1QBP” value [6] does the source give for “CGKRK [tumour-specific vascular homing peptide]” here?
Answer: can bind to cell surface‐associated C1QBP

Question: For CGNKRTRGC [LyP‐1], which “Binding to C1QBP” value [6] is on record?
Answer: can bind to cell surface‐associated C1QBP

B1: PDBAG1 (peptide derived from breast adipose tissue GPD1) (peptide)
peptide: GRKKRRQRRRPPQQASKKVCIVGSGNWGSAIA
notes: stretch of glycerol-3-phosphate dehydrogenase 1 (GPD1), found by peptidomics in benign breast adipose tissue of patients; also called peptide PDBAG1; source: synthetic peptide (Fmoc solid-phase synthesis, Shanghai Science Peptide Biological Technology Co)
Question: For B1, which Kd [7] is on record?
Answer: 334 nM
